These results are taken from patent US7517658B2, “Methods for preparing compositions using a SNORF33 receptor” (H. Lundbeck A/S, priority 1999, dated 2009).

The structures appear in SMILES notation.

Type in all cases: cell-based
The target in assay [1] is T1, rSNORF33 (Rattus norvegicus, UniProt Q923Y9). Description: Cl- currents in Xenopus oocytes expressing rSNORF33 and CFTR (voltage clamp). Conditions: for EC50: oocytes expressing rSNORF33 and CFTR, -80 mV, mean ± S.E.M., read-out: Calculated EC50, Cl- current. Here is the method:
Female Xenopus laevis (Xenopus-1, Ann Arbor, Mich.) were anesthetized in 0.2% tricain (3-aminobenzoic acid ethyl ester, Sigma Chemical Corp.) and a portion of ovary was removed using aseptic technique (Quick and Lester, 1994). Oocytes were defolliculated, using 3 mg/ml collagenase (Worthington Biochemical Corp., Freehold, N.J.) in a solution containing 82.5 mM NaCl, 2 mM KCl, 1 mM MgCl2 and 5 mM HEPES, pH 7.5, and injected (Nanoject, Drummond Scientific, Broomall, Pa.) 24 h later with 50-70 nl of individual mRNAs or mRNA mixtures (see below).
Elevation of intracellular cAMP is monitored in oocytes by expression of the cystic fibrosis transmembrane conductance regulator (CFTR) whose Cl^−-selective pore opens in response to phosphorylation by protein kinase A (Riordan, 1993). To prepare RNA transcripts for expression in oocytes, a template was created by PCR using 5′ and 3′ primers derived from the published sequence of the CFTR gene (Riordan, 1993). The 5′ primer included the sequence coding for T7 polymerase so that transcripts could be generated directly from the PCR products without cloning. Oocytes were injected with 10 ng of CFTR mRNA in addition to 10-15 ng mRNA for SNORF33. Electrophysiological recordings were made after a 2-3 day incubation at 18° C.
Dual electrode voltage clamp (“GeneClamp”, Axon Instruments Inc., Foster City, Calif.) was performed using 3 M KCl-filled glass microelectrodes having resistances of 1-3 Mohms. Unless otherwise specified, oocytes were voltage clamped at a holding potential of −80 mV. During recordings, oocytes were bathed in continuously flowing (1-3 ml/min) medium containing 96 mM NaCl, 2 mM KCl, 1.8 mM CaCl2, 1 mM MgCl2, and 5 mM HEPES, pH 7.5 (ND96). […] Experiments were carried out at room temperature. All values are expressed as mean±standard error of the mean.

Another assay deals with T2, hSNORF33 (Homo sapiens, UniProt Q96RJ0).
T2 sequence (Q96RJ0 1-339): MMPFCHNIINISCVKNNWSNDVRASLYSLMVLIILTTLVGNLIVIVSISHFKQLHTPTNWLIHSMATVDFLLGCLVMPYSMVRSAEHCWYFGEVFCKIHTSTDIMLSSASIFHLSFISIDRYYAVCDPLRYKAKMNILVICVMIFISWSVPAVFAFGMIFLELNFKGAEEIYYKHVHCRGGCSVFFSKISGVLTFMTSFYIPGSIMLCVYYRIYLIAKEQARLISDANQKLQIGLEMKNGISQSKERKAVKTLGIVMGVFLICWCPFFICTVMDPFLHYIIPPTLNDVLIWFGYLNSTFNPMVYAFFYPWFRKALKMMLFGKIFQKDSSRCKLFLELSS
Description: Intracellular cAMP release in human SNORF33-transfected COS-7 cells. Also on record: expressed in transfected cells; host or cells: COS-7 (transient). To be noted: transiently transfected COS-7 cells; read-out: Mean EC50 ± S.D.M., stimulation of human SNORF33 measured by intracellular cAMP release. Here is the method:
(§1) The receptor-mediated stimulation or inhibition of cyclic AMP (cAMP) formation may be assayed in cells expressing the mammalian receptors. Cells are plated in 96-well plates or other vessels and preincubated in a buffer such as HEPES buffered saline (NaCl (150 mM), CaCl2 (1 mM), KCl (5 mM), glucose (10 mM)) supplemented with a phosphodiesterase inhibitor such as 5 mM theophylline, with or without protease inhibitor cocktail (For example, a typical inhibitor cocktail contains 2 μg/ml aprotinin, […] leupeptin, and 10 μg/ml phosphoramidon.) for 20 min at 37° C., in 5% CO2. Test compounds are added with or without […] forskolin and incubated for an additional 10 min at 37° C. The medium is then aspirated and the reaction stopped by the addition of 100 mM HCl or other methods. The plates are stored at 4° C. for 15 min, and the cAMP content in the stopping solution is measured by radioimmunoassay. Radioactivity may be quantified using a gamma counter equipped with data reduction software. Specific modifications may be performed to optimize the assay for the receptor or to alter the detection method of cAMP.
(§2) COS-7 cells were transiently transfected with rSNORF33 gene using the calcium phosphate method and plated in 96-well plates. 48 hours after transfection, cells were washed twice with Dulbecco's phosphate buffered saline (PBS) supplemented with 10 mM HEPES, 10 mM glucose, 5 mM theophylline and 10 μM pargyline and were incubated in the same buffer for 20 min at 37° C., in […] 5% CO2. Test compounds were added and cells were incubated for an additional 10 min at 37° C. The medium was then aspirated and the reaction stopped by the addition of 100 mM HCl. The plates were stored at −20° C. for 2-5 days. For cAMP measurement, plates were thawed and the cAMP content in each well was measured by radioimmunoassay cAMP Scintillation Proximity Assay (Amersham Pharmacia Biotech). Radioactivity was quantified using microbeta Trilux counter (Wallac).

Assay [2] concerns the target T1, rSNORF33. Description: Intracellular cAMP release in rSNORF33-transfected COS-7 cells. To be noted: transiently transfected COS-7 cells; 3–8 experiments; read-out: Mean EC50 ± S.E.M., stimulation of rSNORF33 measured by intracellular cAMP release. Also on record: expressed in transfected cells; host or cells: COS-7 (transient). On the procedure:
as §1, §2

T1 sequence (Q923Y9 whole entry): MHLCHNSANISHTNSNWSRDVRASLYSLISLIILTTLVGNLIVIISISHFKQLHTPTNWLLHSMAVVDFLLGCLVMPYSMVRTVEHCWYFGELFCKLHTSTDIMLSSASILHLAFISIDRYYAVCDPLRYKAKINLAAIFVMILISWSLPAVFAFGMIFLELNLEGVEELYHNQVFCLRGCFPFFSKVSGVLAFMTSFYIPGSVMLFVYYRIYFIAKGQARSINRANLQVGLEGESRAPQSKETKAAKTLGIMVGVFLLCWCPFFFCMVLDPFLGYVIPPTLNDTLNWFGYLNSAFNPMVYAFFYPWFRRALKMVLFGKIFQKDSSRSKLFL

As to `NCC(O)c1ccc(O)cc1` (stereo not drawn) [Octopamine (OCT), Octopamine], the “Cl- currents elicited” value on rSNORF33 [1] (at 100 μM) is on record as “elicited Cl^− currents”. Also, the concentration giving a half-maximal response (EC50) at rSNORF33 [1] was 635 ± 151 nM; on hSNORF33, 4090 ± 95 nM; at rSNORF33 [2], 135 ± 54 nM.

As to `NCCc1c[nH]c2ccccc12` [Tryptamine (T), Tryptamine], the “Cl- currents elicited” value at rSNORF33 [1] (1-100 μM) is given as “produced this activity”. Also, the EC50 is 54 ± 10 nM on rSNORF33 [1], 24000 nM on hSNORF33 and 17 ± 4 nM at rSNORF33 [2].

On to `NCCc1ccc(O)cc1` [Tyramine (TYR), Tyramine], for which, at rSNORF33 [1] (1-100 μM), the “Cl- currents elicited” value was “produced this activity”. The EC50 was 37 ± 4.4 nM on rSNORF33 [1], 214 ± 85 nM on hSNORF33 and 9 ± 6 nM at rSNORF33 [2].

A word on the EC50: it is the concentration that produces a half-maximal response.
